Experimental findings from patent publication US9624247B2, “Pyrazolo-pyrrolidin-4-one derivatives as bet inhibitors and their use in the treatment of disease” (NOVARTIS AG, priority 2013, dated 2017) are described below.

Assay [1] concerns the target BRD4 (His-Brd4(44-477)) (Homo sapiens (Human), UniProt O60885). Description: TR-FRET in-vitro binding assay for BRD4. The note with it: acetyl-histone H4 peptide. On the procedure: (§1) TR-FRET In-Vitro Binding Assays for BRD2, BRD3, and BRD4:
(§2) All assays were performed in 384 well microtiter plates. Each assay plate contained 8-point serial dilutions for 40 test compounds, plus 16 high- and 16 low controls. Liquid handling and incubation steps were done on an Innovadyne Nanodrop Express equipped with a robotic arm (Thermo CatX, Perkin Elmer/Caliper Twister II) and an incubator (Liconic STX40, Thermo Cytomat 2C450). The assay plates were prepared by addition of 50 nl per well of compound solution in 90% DMSO HummingBird nanodispenser (Zinsser Analytic). The assay was started by stepwise addition of 4.5 μl per well of bromo domain protein (50 mM HEPES, pH 7.5, 0.005% Tween20, 0.1% BSA, 50 mM NaCl, 45 nM His-Brd2(60-472) or 45 nM His-Brd3(20-477) or 45 nM His-Brd4(44-477) all proteins produced in-house) and 4.5 μl per well of peptide solution (50 mM HEPES, pH 7.5, 0.005% Tween20, 0.1% BSA, 50 mM NaCl, 60 nM acetyl-histone H4 (AcK 5, 8, 12, 16) (Biosyntan GmbH)). Reactions were incubated at 30° C. for 35 minutes. […] After 35 minutes incubation at 30° C., plates were measured in a Perkin Elmer EnVision multilabel reader. Concentrations causing 50% inhibition (IC50 values) were determined from percent inhibition values at different compound concentrations by non-linear regression analysis.
(§3) Preparation of Compound Dilutions
(§4) Test compounds were dissolved in DMSO (10 mM) and transferred into 1.4 mL flat bottom or V-shaped Matrix tubes carrying a unique 2D matrix. The stock solutions were stored at […] if not used immediately. For the test procedure the vials were defrosted and identified by a scanner whereby a working sheet was generated that guided the subsequent working steps. Compound dilutions were made in 96 well plates. This format enabled the assay of maximally 40 individual test compounds at 8 concentrations (single points) including 4 reference compounds, if desired (known BET inhibitors from the prior art, for this and other assays of the type disclosed herein). The dilution protocol included the production of “pre-dilution plates”, “master plates” and “assay plates”.
(§5) Pre-dilution plates: 96 polypropylene well plates were used as pre-dilution plates. A total of 4 pre-dilution plates were prepared including 10 test compounds each on the plate positions A1-A10, one standard compound at A11 and one DMSO control at A12. All dilution steps were done on a HamiltonSTAR robot.
(§6) Master plates: 30 μL of individual compound dilutions including standard compound and controls of the 4 “pre-dilution plates” were transferred into a 384 “master plate” including the following concentrations 10000, 3003, 1000, 300, 100, 30, 10 and 3 μM, respectively in 90% of DMSO.
(§7) Assay plates: Identical “assay plates” were then prepared by pipetting 50 nL each of compound dilutions of the “master plates” into 384-well “assay plates” by means of a HummingBird 384-channel dispenser. These plates were used directly for the assay which was performed in a total volume of 13.55 μL. This led to a final compound concentration of 37, 11, 3.7, 1.1, 0.37, 0.11, 0.037 and 0.011 μM and a final DMSO concentration of 0.37% in the assay.
(In general: Time-resolved FRET reads energy transfer from a long-lived donor to a nearby acceptor.)

In assay [2] the target is BRD2 (His-Brd2(60-472)) (Homo sapiens (Human), UniProt P25440). Description: TR-FRET in-vitro binding assay for BRD2. The note with it: acetyl-histone H4 peptide. On the procedure:
as §1, §2, §3, §4, §5, §6, §7

In assay [3] the target is BRD3 (His-Brd3(20-477)) (Homo sapiens (Human), UniProt Q15059). Description: TR-FRET in-vitro binding assay for BRD3. The conditions noted are these: acetyl-histone H4 peptide. On the procedure: as §1
Chain of BRD3 (His-Brd3(20-477)) (Q15059 20-477): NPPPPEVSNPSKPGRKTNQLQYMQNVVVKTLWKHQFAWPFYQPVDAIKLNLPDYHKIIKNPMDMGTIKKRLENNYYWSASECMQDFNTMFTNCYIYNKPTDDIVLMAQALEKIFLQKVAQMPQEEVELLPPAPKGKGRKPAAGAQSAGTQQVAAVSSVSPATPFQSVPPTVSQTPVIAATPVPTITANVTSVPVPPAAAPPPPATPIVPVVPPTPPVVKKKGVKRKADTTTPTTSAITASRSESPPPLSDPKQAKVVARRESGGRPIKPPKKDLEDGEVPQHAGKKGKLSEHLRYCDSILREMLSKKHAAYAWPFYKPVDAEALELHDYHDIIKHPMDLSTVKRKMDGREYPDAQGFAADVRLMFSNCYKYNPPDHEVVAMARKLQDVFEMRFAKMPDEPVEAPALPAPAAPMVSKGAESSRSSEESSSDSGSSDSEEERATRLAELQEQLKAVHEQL
All assays were performed in 384 well microtiter plates. Each assay plate contained 8-point serial dilutions for 40 test compounds, plus 16 high- and 16 low controls. Liquid handling and incubation steps were done on an Innovadyne Nanodrop Express equipped with a robotic arm (Thermo CatX, Perkin Elmer/Caliper Twister II) and an incubator (Liconic STX40, Thermo Cytomat 2C450). The assay plates were prepared by addition of 50 nl per well of compound solution in 90% DMSO HummingBird nanodispenser (Zinsser Analytic). […] Reactions were incubated at 30° C. for 35 minutes. […] After 35 minutes incubation at 30° C., plates were measured in a Perkin Elmer EnVision multilabel reader.
as §3, §4, §5
(§8) These plates were used directly for the assay which was performed in a total volume of 13.55 μL.

For assay [4], the target named is CREBBP bromodomain (His-CREBBP(1081-1197)) (Homo sapiens (Human), UniProt Q92793). As to the kind of experiment: AlphaScreen in-vitro binding assay for CREBBP. The note with it: AlphaScreen, acetyl-histone H4 peptide; read-out: CREBBP IC50. On the procedure: AlphaScreen In-Vitro Binding Assay for CREBBP
Chain of CREBBP bromodomain (His-CREBBP(1081-1197)) (Q92793 1081-1197): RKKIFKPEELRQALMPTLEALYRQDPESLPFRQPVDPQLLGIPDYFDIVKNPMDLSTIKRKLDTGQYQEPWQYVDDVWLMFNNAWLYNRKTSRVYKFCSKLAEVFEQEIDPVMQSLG
In order to assess bromodomain selectivity, we set up a binding assay using the bromodomain encoded by the CREBBP gene. […] Reactions were incubated at 30° C. for 35 minutes. Subsequently 4.5 μl per well detection mix (50 mM HEPES, pH 7.5, 0.005% Tween20, 0.02% BSA, 150 mM NaCl, 45 μg/ml Ni-chelate acceptor beads, 45 μg/ml streptavidin-donor beads) (Perkin Elmer)) were added. After 60 minutes incubation at room temperature, plates were measured in a Perkin Elmer EnVision multilabel reader. IC50 values were determined from percent inhibition values at different compound concentrations by non-linear regression analysis.
as §3, §4, §5, §8
(In general: In Alpha technology, singlet oxygen from a donor bead excites a nearby acceptor bead.)

The test system of assay [5] is MV-4-11 cells. As to the kind of experiment: Cell growth inhibition assay (CellTiter-Glo), MV-4-11. The format is cell-based, human. The note with it: MV-4-11, 4 days; for GI50: Homo sapiens, MV4-11, 96 h, half-maximal growth inhibition; for MV-4-11 TGI: total growth inhibition. On the procedure:
(§9) Cell Growth Inhibition Assay
(§10) The human leukemia cell lines MV-4-11, THP-1 and K-562 were employed to characterize the effect of BET inhibitors on cellular proliferation and viability. Cells were obtained from the American Type Culture Collection (ATCC) and cultured at 37° C. in a humidified 5% CO2 incubator in the following media: MV-4-11: DMEM high glucose (Animed #1-26F01-I), 10% FCS (Animed #2-01F26-I), 4 mM L-Glutamine (Animed #5-10K50), 1 mM Sodium Pyruvate (Animed #G03625P), lx Penicillin-Streptomycin (Animed #F12478P); K-562: Iscove's MEM (Animed #1-28F16-I), 10% FCS (Animed #2-01F26-I), 4 mM L-Glutamine (Animed #5-10K50), 1× Penicillin-Streptomycin (Animed #F12478P); THP-1: RPMI-1640 (Animed #1-41F01-I), 10% FCS (Animed #2-01F26-I), 2 mM L-Glutamine (Animed #5-10K50), 10 mM HEPES (Animed #5-31F100), 1 mM Sodium Pyruvate (Animed #G03625P), 1× Penicillin-Streptomycin (Animed #F12478P). The AML lines MV-4-11 and THP-1 are very sensitive to BET inhibitors and show massive cell death upon BET inhibition (Zuber et al., Nature, 478 (2011), 524-8). Compound-mediated suppression of cell proliferation/viability was assessed by quantification of cellular ATP levels using the CellTiter-Glo (CTG) reagent (Promega). Briefly, cells were seeded in 20 μl fresh medium into 384-well plates, followed by addition of 5 μl medium containing compound dilutions at 5-fold their final intended concentration. Dose-response effects were assessed by 3-fold serial dilutions of the test compound, starting at 10 μM. Following incubation of the cells for 4 days at 37° C. and 5% CO2, the effect of inhibitors on cell viability was quantified following addition of 20 μl CTG and luminescence quantification (integration time: 100 ms) as per vendor manual, using a correspondingly equipped Tecan M200 multi-mode platereader (TECAN, Switzerland). For data analysis, the assay background value determined in wells containing medium, but no cells, was subtracted from all data points. To enable differentiation of cytotoxic from cytostatic compounds, the number of viable cells is assessed relative to that observed at the time of compound addition using a separate cell plate (day 0). The effect of a particular test compound concentration on cell proliferation/viability is expressed as percentage of the background- and day 0-corrected luminescence reading obtained for cells treated with vehicle only (DMSO, 0.1% final concentration), which is set as 100%, whereas that luminescence reading for wells containing medium is set as −100%. Compound concentrations leading to half-maximal (IC50) and total growth inhibition (TGI) were determined using standard four parameter curve fitting.
Background: ATP-based viability assays read luminescence as a measure of living cells.

The test system of assay [6] is THP-1 cells. As to the kind of experiment: Cell growth inhibition assay (CellTiter-Glo), THP-1. The format is cell-based, human. The conditions noted are these: THP-1, 4 days; for GI50: Homo sapiens, 96 h, half-maximal growth inhibition; for THP-1 TGI: total growth inhibition. On the procedure:
as §9, §10

The test system of assay [7] is K-562 cells. As to the kind of experiment: Cell growth inhibition assay (CellTiter-Glo), K-562. The format is cell-based, human. The conditions noted are these: K-562, 4 days; for GI50: Homo sapiens, K562, 96 h, half-maximal growth inhibition; for K-562 TGI: total growth inhibition. On the procedure: as §9, §10

For orientation: IC50 means the point on the concentration scale where inhibition reaches its midpoint. As usually defined, the GI50 is the concentration that inhibits growth by half.

Chain of BRD2 (His-Brd2(60-472)) (P25440 60-472): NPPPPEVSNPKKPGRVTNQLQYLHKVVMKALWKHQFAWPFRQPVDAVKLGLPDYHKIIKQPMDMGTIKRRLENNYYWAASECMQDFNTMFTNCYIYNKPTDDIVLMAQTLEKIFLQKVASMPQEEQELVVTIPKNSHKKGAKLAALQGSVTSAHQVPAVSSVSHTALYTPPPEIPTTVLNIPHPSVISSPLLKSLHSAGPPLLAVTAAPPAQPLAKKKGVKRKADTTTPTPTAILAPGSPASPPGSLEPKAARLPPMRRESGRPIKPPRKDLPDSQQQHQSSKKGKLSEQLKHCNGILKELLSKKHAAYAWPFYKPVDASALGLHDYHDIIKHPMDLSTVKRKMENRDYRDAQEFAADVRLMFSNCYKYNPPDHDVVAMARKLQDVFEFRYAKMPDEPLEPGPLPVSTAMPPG

As for `Cc1cc(N2C(=O)c3c(C4CC4)nn(-c4ccnn4C)c3C2c2ccc(Cl)cc2)cc2c1nnn2C` (centres unmarked) [Example 21, 6-(4-chlorophenyl)-3-cyclopropyl-5-(1,4-dimethyl-1H-benzo[d][1,2,3]triazol-6-yl)-1-(1-methyl-1H-pyrazol-5-yl)-5,6-dihydropyrrolo[3,4-c]pyrazol-4(1H)-one], the concentration for half-maximal inhibition (IC50) in assay [1] was found to be 17 nM; in assay [2], 31 nM; in assay [3], 23 nM; in assay [4], 6600 nM. Besides, the figures for the GI50 in assay [5], in assay [6] and in assay [7] were 13.5 nM, 22.3 nM and 78.8 nM, respectively. The “MV-4-11 TGI” value in assay [5] amounted to 27.25 nM. The “THP-1 TGI” value in assay [6] amounted to 44.45 nM. In assay [7], the “K-562 TGI” value is above 10000 nM.

Regarding `COc1cc(N2C(=O)c3c(C4CC4)nn(C)c3C2c2ccc(Cl)cc2)cn2c(C(F)F)nnc12` (centres unmarked) [Example 22, 6-(4-chlorophenyl)-3-cyclopropyl-5-(3-(difluoromethyl)-8-methoxy-[1,2,4]triazolo-[4,3-a]pyridin-6-yl)-1-methyl-5,6-dihydropyrrolo[3,4-c]pyrazol-4(1H)-one], the IC50 is 130 nM in assay [1], 210 nM in assay [2], 230 nM in assay [3] and above 37000 nM in assay [4]. Also, the GI50 in assay [5] worked out at 266 nM; in assay [6] it was 814 nM; in assay [7], 1180 nM. In addition, in assay [5], the “MV-4-11 TGI” value worked out at 574 nM. Besides, the “THP-1 TGI” value in assay [6] amounted to 1330 nM. Also, the “K-562 TGI” value in assay [7] is above 10000 nM.

For the compound `Cc1cc(N2C(=O)c3c(C4CC4)nn(C)c3[C@H]2c2ccc(Cl)cc2)nn2c(C)nnc12` [Example 24, (R)-6-(4-chlorophenyl)-3-cyclopropyl-5-(3,8-dimethyl-[1,2,4]triazolo[4,3-b]pyridazin-6-yl)-1-methyl-5,6-dihydropyrrolo[3,4-c]pyrazol-4(1H)-one], the IC50 in assay [1] is below 11 nM; in assay [2], below 11 nM; in assay [3] it was below 11 nM; in assay [4] it was 19200 nM. The 50% growth inhibitory concentration (GI50) came out at 0.643 nM in assay [5], 1.88 nM in assay [6] and 10.4 nM in assay [7]. Moreover, the “MV-4-11 TGI” value in assay [5] worked out at 1.57 nM. Further, the “THP-1 TGI” value in assay [6] was 4.91 nM. Besides, the “K-562 TGI” value in assay [7] was above 10000 nM.

On to `Cc1cc(N2C(=O)c3c(C4CC4)nn(-c4ccnn4C)c3C2c2ccc(Cl)cc2)nn2c(C)nnc12` (centres unmarked) [Example 25, 6-(4-chlorophenyl)-3-cyclopropyl-5-(3,8-dimethyl-[1,2,4]triazolo[4,3-b]pyridazin-6-yl)-1-(1-methyl-1H-pyrazol-5-yl)-5,6-dihydropyrrolo[3,4-c]pyrazol-4(1H)-one], for which the half-maximal inhibitory concentration (IC50) in assay [1] is 25 nM; in assay [2], 32 nM; in assay [3], 24 nM; in assay [4], above 37000 nM. For the same compound, the 50% growth inhibitory concentration (GI50) was 6.65 nM in assay [5], 20.1 nM in assay [6] and 91.6 nM in assay [7]. In assay [5], the “MV-4-11 TGI” value came to 15.9 nM. In addition, the “THP-1 TGI” value in assay [6] is 44.4 nM. The “K-562 TGI” value in assay [7] is above 10000 nM.

Regarding `Cc1nnc2c(N)cc(N3C(=O)c4c(C5CC5)nn(C)c4C3c3ccc(Cl)cc3)cn12` (centres unmarked) [Example 28, 5-(8-amino-3-methyl-[1,2,4]triazolo[4,3-a]pyridin-6-yl)-6-(4-chlorophenyl)-3-cyclopropyl-1-methyl-5,6-dihydropyrrolo[3,4-c]pyrazol-4(1H)-one], the concentration for half-maximal inhibition (IC50) was 21 nM in assay [1], 41 nM in assay [2], 34 nM in assay [3] and 3700 nM in assay [4]. Further, the GI50 in assay [5] stood at 1.56 nM; in assay [6], 2.83 nM; in assay [7], 9.66 nM. Moreover, the “MV-4-11 TGI” value in assay [5] came out at 3.515 nM. Also, the “THP-1 TGI” value in assay [6] amounted to 9.04 nM. Besides, in assay [7], the “K-562 TGI” value is above 10000 nM.
